From ChEMBL document CHEMBL5223085, “Agonist Lock Touched and Untouched Retinoic Acid Receptor-Related Orphan Receptor-γt (RORγt) Inverse Agonists: Classification Based on the Molecular Mechanisms of Action” (J Med Chem, 2021) come the findings set out here.

In experiment [1] the target is T1, Nuclear receptor ROR-gamma (Homo sapiens, UniProt P51449).
T1 sequence (P51449 whole entry): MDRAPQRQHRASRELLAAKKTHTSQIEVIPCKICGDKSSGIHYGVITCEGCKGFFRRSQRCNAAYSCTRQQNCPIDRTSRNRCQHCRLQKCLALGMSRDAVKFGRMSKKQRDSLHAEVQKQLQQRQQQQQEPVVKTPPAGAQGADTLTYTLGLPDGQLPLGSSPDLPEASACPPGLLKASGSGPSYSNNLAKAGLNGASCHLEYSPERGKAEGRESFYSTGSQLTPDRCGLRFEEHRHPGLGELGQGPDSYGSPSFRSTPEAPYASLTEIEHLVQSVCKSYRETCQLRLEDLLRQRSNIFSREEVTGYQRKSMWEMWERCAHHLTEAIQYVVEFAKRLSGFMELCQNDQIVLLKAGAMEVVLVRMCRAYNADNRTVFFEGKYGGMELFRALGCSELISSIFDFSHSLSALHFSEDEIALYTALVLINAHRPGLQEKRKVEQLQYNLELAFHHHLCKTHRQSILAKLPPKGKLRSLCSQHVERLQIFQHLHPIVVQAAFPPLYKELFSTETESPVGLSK
Nature of the experiment: Inverse agonist activity against human RORgammat by FRET assay.

Experiment [2] concerns the target T1, Nuclear receptor ROR-gamma. Briefly: Displacement of 25-[26,27-3H2]-hydroxycholesterol from RORgammat (unknown origin) assessed as inhibition constant by scintillation proximity assay.

The structures appear in SMILES notation.

Broadly, the IC50 is the point on the concentration scale where inhibition reaches its midpoint. A lower IC50 goes with greater potency. In the case of `Cc1ccc([C@@H](NC(=O)Cc2ccc3oc(C(O)c4c(C)noc4C)cc3c2)c2ccccc2)c(C)c1` (stereo partly drawn), the IC50 in experiment [1] turned out to be 5 nM.
In the case of `Cc1ccc(C(NC(=O)Cc2ccc(OCc3c(C)noc3C)cc2)c2ccccc2)c(C)c1` (stereo not drawn), in experiment [1], the IC50 was 3 nM.
As usually defined, the Ki is a measure of affinity in units of concentration, obtained from inhibition or displacement. Consider `CCS(=O)(=O)c1ccc(CC(=O)Nc2cnc3c(c2)CN(C[C@H]2CC[C@H](C(F)(F)F)CC2)[C@H]3C(C)C)nc1`, for which the inhibition constant (Ki) in experiment [2] is 3.7 nM.
